We go through 8 compounds from US20070037788A1, “Tricyclic steroid hormone nuclear receptor modulators” (Eli Lilly and Company, priority 2003, published 2007).

Experiment [1] has as its target T1, human MR (Homo sapiens, UniProt P08235).
T1 construct: The full length human MR gene is cloned from a human kidney or human brain cDNA library; made in house; host or cells: SF9 insect cells (baculovirus)
T1 sequence (P08235 1-984): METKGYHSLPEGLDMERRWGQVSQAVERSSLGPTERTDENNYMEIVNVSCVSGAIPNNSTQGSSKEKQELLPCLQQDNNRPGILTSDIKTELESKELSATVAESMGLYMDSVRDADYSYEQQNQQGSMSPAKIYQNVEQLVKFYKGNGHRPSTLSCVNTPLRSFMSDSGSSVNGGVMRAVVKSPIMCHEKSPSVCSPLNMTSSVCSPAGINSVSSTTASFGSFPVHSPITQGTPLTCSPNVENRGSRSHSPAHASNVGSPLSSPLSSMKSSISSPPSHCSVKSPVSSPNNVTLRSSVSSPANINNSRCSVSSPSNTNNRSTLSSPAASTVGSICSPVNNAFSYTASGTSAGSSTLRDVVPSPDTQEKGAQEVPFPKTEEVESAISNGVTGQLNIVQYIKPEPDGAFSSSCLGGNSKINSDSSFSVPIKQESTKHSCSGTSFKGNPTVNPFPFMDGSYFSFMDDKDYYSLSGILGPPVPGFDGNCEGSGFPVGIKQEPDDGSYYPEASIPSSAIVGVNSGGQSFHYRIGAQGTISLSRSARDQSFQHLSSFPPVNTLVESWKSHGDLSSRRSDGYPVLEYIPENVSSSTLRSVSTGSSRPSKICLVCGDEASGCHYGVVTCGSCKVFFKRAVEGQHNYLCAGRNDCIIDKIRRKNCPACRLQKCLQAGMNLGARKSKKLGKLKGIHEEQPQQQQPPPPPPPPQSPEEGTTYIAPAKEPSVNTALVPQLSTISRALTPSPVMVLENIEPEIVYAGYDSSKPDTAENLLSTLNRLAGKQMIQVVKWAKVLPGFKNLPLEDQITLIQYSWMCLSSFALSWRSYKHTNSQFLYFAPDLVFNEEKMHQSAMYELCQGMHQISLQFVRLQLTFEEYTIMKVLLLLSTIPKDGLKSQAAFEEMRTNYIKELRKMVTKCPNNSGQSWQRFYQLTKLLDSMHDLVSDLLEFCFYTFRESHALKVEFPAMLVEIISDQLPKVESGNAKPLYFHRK
Kind of experiment: Mineralocorticoid Receptor Binding Assay (Method 1). The following applies: [3H]-aldosterone. The procedure: The full length human MR gene is cloned from a human kidney or human brain cDNA library. Briefly, using synthetic oligonucleotide primers (Eli Lilly and Company, Indianapolis) directed to nucleotides 20-54 and 3700-3666 of the human MR, polymerase chain reaction (PCR) is performed under standard conditions using a human cDNA library. The PCR reaction is performed in a final volume of 50 μl containing about 1 μl of a 50× stock solution of polymerase; about 1 μl of a 50× stock solution of DNTP; about 5 μl of an appropriate PCR buffer; about 1 μl of each primer; about 5 μl of a H. kidney or H. brain cDNA library; and about 36 μl of water. The reaction is allowed to denature for about 30 seconds at 95 degrees Celsius, anneal for about 30 seconds at 55 degrees Celsius, and extend for about 5 minutes at 72 degrees Celsius, the sequence being repeated for a total of about 35 cycles. The desired PCR product (3.68 Kb) is confirmed by gel electrophoresis and subsequently cut from the gel and stored at about −20 degrees Celsius until extraction. To extract the cDNA product from the agarose gel, the QIAEX II Gel Extraction protocol (QIAGEN, Inc.) is employed according to the manufacturer's instructions. Following extraction, the MR cDNA is cloned into an appropriate cloning vector (Zero Blunt TOPO PCR Cloning Kit (Invitrogen, Inc.) and a pAcHLT-baculovirus transfer vector (B.D./Pharminogen), then expressed in SF9 insect cells, essentially according to manufacturer's instructions. Sf9 cells are grown at a scale where gram quantity cell pellets are obtained for subsequent use in the MR binding assay. Harvested cell pellets are lysed by repeated freeze-thaw cycles (about 4) in a suitable lysis buffer then centrifuged at about 1×10^3 G (with the supernatant being saved for future assays).
MR binding assays are performed in a final total volume of about 250 μl containing about 20-25 μg of protein and 0.5 nM of [^3H]-aldosterone plus varying concentrations of test compound or vehicle. The assay binding buffer consists of 30 mM sodium molybdate, 30 mM of TRIS-HCl, 5 mM sodium phosphate, 5 mM sodium pyrophosphate, and about 10% glycerol, pH=7.5.
Briefly, assays are prepared at RT in 96-well Falcon 3072 plates, each well containing 210 μl of binding buffer, 10 μl of [^3H]-aldosterone, 10 μl of test compound/vehicle, and 20 μl of the resuspended receptor protein extract. Incubations are carried out at 4 degrees Celsius with shaking for about 16 hours. 200 μl aliquots of each incubation are filtered onto Millipore HA 0.45 micron 96-well filter plates, pre-moistened with cold 30 mM TRIS-HCl. The filter plates are suctioned dry with vacuum and immediately washed 3× with cold 30 mM TRIS-HCl. The plates are then punched out and the amount of receptor-ligand complex is determined by liquid scintillation counting using 4 ml of Ready Protein Plus™ liquid scintillation cocktail.

The target in experiment [2] is T2, glucocorticoid receptor (Homo sapiens, UniProt P04150).
T2 construct: containing 50-200 ug of A549 cell extract and 1.86 nM [^3H]-dexamethasone; host or cells: A549 human lung epithelial cells
T2 sequence (P04150 1-777): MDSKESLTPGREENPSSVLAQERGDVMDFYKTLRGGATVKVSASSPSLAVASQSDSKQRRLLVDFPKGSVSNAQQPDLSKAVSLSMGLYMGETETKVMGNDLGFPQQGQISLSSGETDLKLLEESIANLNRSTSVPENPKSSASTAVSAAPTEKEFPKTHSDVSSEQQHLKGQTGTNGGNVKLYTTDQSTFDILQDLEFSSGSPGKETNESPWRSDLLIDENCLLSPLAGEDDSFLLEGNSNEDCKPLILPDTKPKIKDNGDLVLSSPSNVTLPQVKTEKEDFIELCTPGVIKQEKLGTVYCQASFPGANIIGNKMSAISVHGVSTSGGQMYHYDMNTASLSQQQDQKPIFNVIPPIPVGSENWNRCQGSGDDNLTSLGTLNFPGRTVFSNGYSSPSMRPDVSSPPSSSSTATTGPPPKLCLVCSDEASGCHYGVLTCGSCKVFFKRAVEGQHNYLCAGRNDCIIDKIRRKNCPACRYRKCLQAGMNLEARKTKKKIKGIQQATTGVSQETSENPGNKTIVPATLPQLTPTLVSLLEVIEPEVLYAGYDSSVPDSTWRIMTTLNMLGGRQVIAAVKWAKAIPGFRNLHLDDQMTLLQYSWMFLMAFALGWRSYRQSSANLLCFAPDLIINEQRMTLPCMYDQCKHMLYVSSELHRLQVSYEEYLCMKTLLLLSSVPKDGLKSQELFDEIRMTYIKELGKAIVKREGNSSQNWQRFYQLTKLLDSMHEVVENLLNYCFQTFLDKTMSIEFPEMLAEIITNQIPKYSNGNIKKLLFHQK
Kind of experiment: Glucocorticoid Receptor Binding Assay (Method 1). Conditions: A549 cell extract, [3H]-dexamethasone, read-out: GR Ki. The procedure: A549 human lung epithelial cells (ATCC) are grown at a scale where gram quantity cell pellets are obtained. Harvested cell pellets are washed twice in cold phosphate buffered saline, centrifuged, and resuspended in cold assay binding buffer. The assay binding buffer consists of 10% glycerol, 50 mM Tris-HCl (pH7.2), 75 mM sodium chloride, 1.5 mM magnesium chloride, 1.5 mM EDTA, and 10 mM sodium molybdate. Cell suspensions were lysed via sonication, centrifuged, and the “extract” supernatant is snap frozen and stored at −80 C until needed.
GR binding assays are performed in a final volume of 140 ul containing 50-200 ug of A549 cell extract and 1.86 nM [^3H]-dexamethasone (Amersham) plus varying concentrations of test compound or vehicle. Briefly, assays are prepared at RT in 96-well Fisher 3356 plates, each well containing 100 ul of A549 cell extract, 20 ul of [^3H]-dexamethasone, and 20 ul of test compound/vehicle. Incubations are carried out at 4 degrees Celsius for 16 hours. After incubation, 70 ul of 3× dextran-coated charcoal solution is added to each reaction, mixed, and incubated for 8 minutes at RT. […] 200 ul of Microscint-20 scinillant (Packard Instruments) is added to each well and amount of receptor bound radioligand is determined using Packard Instruments TopCount instrument.

For experiment [3] the following is noted: in combination with standard CHF therapy, patients suffering from advanced CHF; cited from earlier work.

Broadly, the Ki is a dissociation constant, usually derived from enzyme kinetics or from competition with a known ligand. Consider `CN(C)CCn1c(=O)[nH]c2cc(/C=C3\c4ccccc4COc4cc(F)ccc43)ccc21` [Example 6], for which the Ki in experiment [1] is less than 500 nM; in experiment [2] it was less than 10 µM. In experiment [1], `CN1CC[C@@H](n2c(=O)[nH]c3cc(/C=C4/c5ccc(F)cc5OCc5c(F)cccc54)ccc32)C1` [Example 47] displayed a Ki of less than 500 nM. Take `O=c1[nH]c2cc(C=C3c4ccc(F)cc4CCc4cc(F)ccc43)ccc2n1CCCN1CCOCC1` [Example 48]: the Ki in experiment [1] was less than 500 nM. The same measure, in the same setting: the value for `O=c1[nH]c2cc(C=C3c4ccc(F)cc4CCc4cc(F)ccc43)ccc2n1CCN1CCNCC1` [Example 49] was less than 500 nM; that for `O=c1[nH]c2cc(C=C3c4ccc(F)cc4CCc4cc(F)ccc43)ccc2n1CCN1CCCC1` [Example 50] was less than 500 nM.

Regarding `CN(C)CCn1c(=O)[nH]c2cc(C=C3c4ccc(F)cc4CCc4cc(F)ccc43)ccc21` [Example 51], the Ki in experiment [1] is less than 500 nM. As for `CN1CCN(CCn2c(=O)[nH]c3cc(C=C4c5ccc(F)cc5CCc5cc(F)ccc54)ccc32)CC1` [Example 52], the Ki in experiment [1] was less than 500 nM. With `CC(=O)S[C@@H]1CC2=CC(=O)CC[C@]2(C)[C@H]2CC[C@@]3(C)[C@@H](CC[C@@]34CCC(=O)O4)[C@H]12` [spironolactone], in experiment [3], the “reduced cardiac related mortality” value is on record as 30% and the “reduced frequency of hospitalization” value was 35%.
